Experimental data as given in patent publication US11649231B2, “Compound as mTOR inhibitor and use thereof” (MEDICINAL BIOCONVERGENCE RESEARCH CENTER, priority 2018, dated 2023).

Experiments:
RagD = RagD GTP hydrolysis inhibitory activity (GTP-agarose bead pulldown assay) in SW620 cells; type: cell-based; details: 10 μM for 1 hour, leucine restimulation 15 min
Experimental: GTP-agarose bead pulldown assay was performed to analyze RagD bound to GTP.
After washing the cells with cold PBS, cells were obtained in GTP-binding buffer (20 mM Tris-HCl, pH 7.5, 5 mM MgCl2, 2 mM PMSF, 20 μg/ml leupeptin, 10 μg/ml aprotinin, 150 mM NaCl, 1% Triton X-100, 1× phosphatase inhibitor cocktail). The cells were sonicated for 15 seconds to lyse, and the cell lysate was centrifuged at 4° C. for 10 minutes and at 13000×g to obtain a supernatant. The obtained protein solution (contained in 500 μl of GTP-binding buffer) was treated with 100 μl of GPT-agarose bead (Sigma Aldrich, Cat no. G9768) and left at 4° C. for 30 minutes. Thereafter, the beads were washed with GTP-binding buffer, and the supernatant was recovered. The washed beads in the recovered supernatant were once again treated for 30 minutes. The beads were washed again, and the recovered supernatant was left overnight at 4° C. After washing 5 times with GTP-binding buffer to separate contaminants that may have been included, the GTP-binding protein was analyzed by performing immunoblot analysis using anti-RagD or ARF1 antibody. ARF1 was used as a negative control.

LRS and RagD = LRS and RagD (Homo sapiens (Human), UniProt Q9P2J5); test: Inhibition of the interaction of LRS and RagD (immunoprecipitation) in SW620 cells; type: cell-based; details: 10 uM for 1 hour, leucine restimulation, anti-LRS or anti-RagD precipitate
Sequence of LRS and RagD (Q9P2J5 whole entry): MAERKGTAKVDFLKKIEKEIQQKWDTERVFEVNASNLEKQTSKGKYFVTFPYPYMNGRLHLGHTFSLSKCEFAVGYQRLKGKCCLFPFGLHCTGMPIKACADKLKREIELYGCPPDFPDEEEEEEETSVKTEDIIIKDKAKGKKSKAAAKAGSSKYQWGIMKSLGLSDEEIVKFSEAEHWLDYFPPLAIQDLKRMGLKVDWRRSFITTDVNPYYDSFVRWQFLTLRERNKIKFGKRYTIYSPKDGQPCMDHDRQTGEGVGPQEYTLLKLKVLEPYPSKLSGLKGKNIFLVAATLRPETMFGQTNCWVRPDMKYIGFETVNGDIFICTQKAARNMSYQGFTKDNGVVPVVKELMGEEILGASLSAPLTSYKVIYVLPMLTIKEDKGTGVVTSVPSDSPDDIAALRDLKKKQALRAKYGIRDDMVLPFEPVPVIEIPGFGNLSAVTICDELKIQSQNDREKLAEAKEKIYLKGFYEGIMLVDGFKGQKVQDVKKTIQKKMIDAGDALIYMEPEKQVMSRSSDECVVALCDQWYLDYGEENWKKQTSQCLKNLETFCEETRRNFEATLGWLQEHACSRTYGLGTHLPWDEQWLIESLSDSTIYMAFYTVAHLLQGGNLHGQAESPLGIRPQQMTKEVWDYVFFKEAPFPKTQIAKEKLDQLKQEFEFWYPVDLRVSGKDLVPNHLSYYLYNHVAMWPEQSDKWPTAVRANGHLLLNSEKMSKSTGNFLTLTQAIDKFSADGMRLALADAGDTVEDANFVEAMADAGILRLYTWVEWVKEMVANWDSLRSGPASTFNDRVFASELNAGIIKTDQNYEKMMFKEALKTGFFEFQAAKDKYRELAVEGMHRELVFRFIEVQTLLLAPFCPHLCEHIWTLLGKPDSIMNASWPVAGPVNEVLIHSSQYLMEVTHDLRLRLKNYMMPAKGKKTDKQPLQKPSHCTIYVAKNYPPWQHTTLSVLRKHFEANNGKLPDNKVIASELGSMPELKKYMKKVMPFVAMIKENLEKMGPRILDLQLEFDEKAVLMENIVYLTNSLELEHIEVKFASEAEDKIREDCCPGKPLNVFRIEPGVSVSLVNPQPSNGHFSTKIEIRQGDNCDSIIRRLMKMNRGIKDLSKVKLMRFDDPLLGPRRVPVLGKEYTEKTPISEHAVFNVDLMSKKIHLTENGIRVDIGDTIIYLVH
Experimental: Cells were lysed using a lysis buffer containing a protease inhibitor, and a primary antibody was added to the cell lysate for immunoprecipitation, followed by stirring at 4° C. for 2 hours and allowed to stand. A 50% protein agarose G-Sepharose slurry was added and left for an additional 4 hours. After washing three times with cold lysis buffer, the precipitate was dissolved in SDS sample buffer, separated by SDS-PAGE, and immunoblotted using anti-LRS or anti-RagD antibody.

mTORC1 [1] = test: In vivo mTORC1 inhibition, S6K phosphorylation in brain neocortex and hippocampus of C57BL/6 mice; parameters: species or system mouse
Experimental: (§1) The salt of the compound of the Example 1-1 was administered at a dose of 100 mg/kg (in 10% DMAC, 15% Tween 80, 75% 0.1M Na2HPO4, pH9.4), and rapamycin at a dose of 2 mg/kg (in 10% DMAC, 15% Tween 80, 75% saline).
On the other hand, the present inventor attempted to evaluate the mTOR. inhibitory activity by salt concentration of the compound of Example 1-1 based on the above results.

mTORC2 [2] = molecular target: T1, mTORC2 (Mus musculus (Mouse), UniProt Q9JLN9); test: In vivo mTORC2 activity, AKT phosphorylation in brain of C57BL/6 mice; details: 100 mg/kg intraperitoneal; 7-week-old C57BL/6 male mice
Experimental: as §1

autophagy [3] = test: In vivo autophagy (LC3 II or p62 degradation) in brain of C57BL/6 mice; parameters: species or system mouse; details: 100 mg/kg intraperitoneal; 7-week-old C57BL/6 male mice
Experimental: as §1

B6C3H/APP/PS1 mice = test: Amyloid plaque removal in Alzheimer's animal model, ThS staining; type: in vivo, mouse; details: 5, 10 or 20 mg/kg intraperitoneal once daily for 7 days, vs vehicle
From the text: In the experiment, 7 months old male B6C3H/APP/PS1 mice were purchased from Jackson Lab (Bar Harbor, Me., USA) and used. These mouse are all dual transgenic mice expressing chimeric mouse/human amyloid precursor protein and mutant human presenilin 1, both of these are about CNS neurons. Both mutations are associated with early onset Alzheimer's.
The prepared salt (1-4K) of the compound of Example 1-1 was intraperitoneally administered at 0, 5, 10 or 20 mpk (mg/kg) per mouse, once daily for 7 days. As the solvent, 10% DMAC, 15% Tween 80, and 75% 0.1M Na2HPO4 buffer were used.
For immunohistochemical analysis, mice were anesthetized with 2% Avertin (20 μg g^−1, intraperitoneally), perfused with 0.9% saline, and perfused with ice-cold 4% paraformaldehyde. Excised brains of B6C3H/APP/PS1 mice were fixed in 4% paraformaldehyde (pH 7.4) for 16 hours. The fixed brain samples were immersed in 30% sucrose for cryoprotection and sliced to a thickness of 35 μm using a Cryostat (Microm HM 525, Thermo Scientific, Waltham, Mass., USA). To visualize Aβ plaques, sliced brain sections were stained with thioflavin S (ThS) for 7 minutes. […]
Images were taken with a Leica DM2500 fluorescence microscope. Plaque numbers were calculated from a single brain image of each mouse using the ImageJ software program.
Aβ deposition in the brain of APP/PS1 mice can be detected at 6 months of age. […]

mTORC1 [4] = test: mTORC1 activation (p-S6K T389) in TSC2 CKO epilepsy animal model; type: in vivo, mouse; details: TSC2 CKO mice; rapamycin 3 mg/kg or Example 1-1K 10 mg/kg i.p.; 4 weeks; vs control
Experimental: (§2) Animal care was performed according to an animal protocol approved by the Animal Experiment Committee of Seoul National University. TSC2^GFAP1 CKO mice were generated as follows. TSC2^flox/flox mice were first crossed with the same GFAP-Cre mouse line. The resulting TSC2^flox/+; TSC2^flox/flox by crossing GFAP-Cre mice with other TSC2^flox/flox mice; GFAP-Cre mice were generated.
For western blot analysis, mouse cerebral neocortex and hippocampus were dissected and sonicated in cell lysis buffer (Cell Signaling, Beverly, Mass., USA). After centrifugation at 15,000 rpm at 4° C. for 1 hour. a supernatant was obtained and the protein concentration was measured by the Bradford method (Pierce, Rockford, Ill., USA). An equal amount of total protein extract was separated by SDS-PAGE and transferred to a nitrocellulose membrane.

mTORC2 [5] = molecular target: T1, mTORC2; test: mTORC2 activation (p-AKT S473) in TSC2 CKO epilepsy animal model; type: in vivo; details: TSC2 CKO mice; rapamycin 3 mg/kg or Example 1-1K 10 mg/kg i.p.; 4 weeks
Experimental: as §2
(§3) For western blot analysis, mouse cerebral neocortex and hippocampus were dissected and sonicated in cell lysis buffer (Cell Signaling, Beverly, Mass., USA). After centrifugation at 15,000 rpm at 4° C. for 1 hour. a supernatant was obtained and the protein concentration was measured by the Bradford method (Pierce, Rockford, Ill., USA). An equal amount of total protein extract was separated by SDS-PAGE and transferred to a nitrocellulose membrane. After incubation with anti-p-S6K (T389) (Cell Signaling, #9205), anti-S6K (Cell Signaling, #9202), anti-Actin (Santa Cruz Biotechnology, #sc-1616), anti-p-AKT (S473) (Cell signaling, #4060), anti-AKT (Cell signaling, #2920) anti-p62/SQSTM1 (Cell signaling, #39749) and anti-LC3A (Cell signaling, #4108) antibodies in 1% TTBBS buffer (10 mM Tris, 10% Tris (Tris-HCl, pH 7.5, 150 mM NaCl, 0.05% Tween 20), the membrane was reacted with a peroxidase-conjugated secondary antibody. Signals were detected using an improved chemiluminescent reagent (Pierce, Rockford, Ill., USA).

autophagy [6] = test: Autophagy markers (LC3 II increase or p62 cleavage) in TSC2 CKO epilepsy animal model; type: in vivo, mouse; details: TSC2 CKO mice; rapamycin 3 mg/kg or Example 1-1K 10 mg/kg i.p.; 4 weeks
Experimental: as §2, §3

mTORC1 [7] = test: mTORC1 activity inhibitory effect at 20 μM, phospho-p70 S6 Kinase Western blot in SW620 cells; details: leucine-free 1 h 30 min, then leucine 15 min, vs DMSO control
Experimental: In order to evaluate the inhibitory effect of the compounds according to the present invention on the activity of mTORC1, an experiment was performed in the following manner.

Row | Structure (SMILES) | GTP hydrolysis of RagD (RagD) | interaction between LRS and RagD (LRS and RagD) | phosphorylation of S6K in the brain, by dose (mTORC1 [1]; 0, 1, 2.5, 5, 10, 20 and 50 mg/kg intraperitoneal, C57BL/6 male mice) | phosphorylated S6K in brain neocortex and hippocampus (mTORC1 [1]; 100 mg/kg intraperitoneal, 7-week-old C57BL/6 male mice) | phosphorylation degree of AKT (mTORC2 activity) (mTORC2 [2]) | autophagy action (degradation of LC3 II or p62) (autophagy [3]) | amyloid plaque deposits (ThS staining) in the brain (B6C3H/APP/PS1 mice) | mTORC1 activation, p-S6K (T389) in cerebral cortex and hippocampus (mTORC1 [4]) | mTORC2 activation, p-AKT (S473) (mTORC2 [5]) | autophagy (LC3 II increase or p62 cleavage) (autophagy [6]) | mTORC1 inhibitory effect (%) (mTORC1 [7])
1 | O=C1[N-]C(=S)S/C1=C\c1cnn(-c2ccccc2)c1.[K+] [Example 1-1K, Potassium Salt of (5Z)-5-[(1-phenylpyrazole-4-yl)methylene]-2-thioxo-thiazolidin-4-one] | inhibiting the GTP hydrolysis of RagD | directly inhibited | inhibited the phosphorylation of S6K in the brain of the animal in a concentration-dependent manner | not detected | not changed | increased | significantly reduced | reduced | not affected | induced | ≥ 85
2 | CO[C@H]1C[C@@H]2CC[C@@H](C)[C@@](O)(O2)C(=O)C(=O)N2CCCC[C@H]2C(=O)O[C@H]([C@H](C)C[C@@H]2CC[C@@H](O)[C@H](OC)C2)CC(=O)[C@H](C)/C=C(\C)[C@@H](O)[C@@H](OC)C(=O)[C@H](C)C[C@H](C)/C=C/C=C/C=C/1C [rapamycin, reference compound] | – | – | – | – | – | – | – | reduced | not affected | induced | –
